The target of assay [1] is T1, HOIP RBR C885S (Homo sapiens, UniProt Q96EP0, C885S).
T1 construct: 697-1072; made in house; host or cells: E. coli BL21-GOLD(DE3)
As to the kind of experiment: Protein LC-MS labeling of active-site mutant. Format: binding. As to conditions: 200 μM compound (100-fold excess), 2 μM protein, 4 h. The method, then: (§1) negative control and compound solutions data points were acquired after 0.5, 4, and 24 h […]
(§2) Protocol as described above, using the HOIP RBR C885S mutant (155 µM stock solution in 50 mM HEPES, 150 mM NaCl, 1 mM DTT, pH 7.5) and 50 mM HEPES, 150 mM NaCl, pH 7.5 buffer.
(§3) The stock solution at 4 µM (25 µL per sample, final concentration 2 µM, 87 µg/mL), was mixed with buffer (24.5 µL) and compound (5) (0.5 µL of 2, and 20 mM stock solutions in DMSO, giving a final concentration of 20 and 200 µM respectively, and 1% DMSO). Data points were acquired after 0.5 and 4 h incubation.
The HOIP RBR domain wild type was diluted with 50 mM HEPES, 150 mM NaCl, pH 7.5 buffer to afford a new stock solution at 2.02 µM, which was aliquoted into 10 × 297 µL. […]
(§4) thawed individually and analyzed by protein mass spectrometry as described above. The total ion counts (TICs) detected for unlabelled HOIP and labelled HOIP-(5) conjugate within a peak elution range of 10 seconds were used to calculate the ratio of labelled HOIP RBR over total HOIP RBR content for each sample. The averaged data from 3 independent experiments were analyzed according to a two-step model of reversible ligand binding followed by irreversible covalent modification (Supplementary Figure S2A),11 fitted to a single exponential equation (equation 1, Supplementary Figure S2B) using GraFit (v.7). […]

Assay [2] addresses T2, wild type HOIP RBR domain (Homo sapiens, UniProt Q96EP0).
T2 construct: made in house; host or cells: E. coli BL21-GOLD(DE3)
T2 sequence (Q96EP0 697-1072): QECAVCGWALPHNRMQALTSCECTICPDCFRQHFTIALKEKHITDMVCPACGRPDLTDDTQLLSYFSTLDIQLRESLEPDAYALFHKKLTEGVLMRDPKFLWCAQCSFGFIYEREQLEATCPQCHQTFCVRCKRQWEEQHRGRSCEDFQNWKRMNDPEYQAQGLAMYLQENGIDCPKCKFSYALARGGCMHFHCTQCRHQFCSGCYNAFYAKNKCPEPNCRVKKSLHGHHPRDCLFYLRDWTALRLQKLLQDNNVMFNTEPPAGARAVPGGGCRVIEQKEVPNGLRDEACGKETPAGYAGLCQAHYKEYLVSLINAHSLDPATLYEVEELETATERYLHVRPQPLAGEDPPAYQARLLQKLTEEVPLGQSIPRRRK
As to the kind of experiment: Protein LC-MS kinetics of covalent labeling. Format: binding. The method, then:
as §1, §2, §3
The HOIP RBR domain wild type was diluted with 50 mM HEPES, 150 mM NaCl, pH 7.5 buffer to afford a new stock solution at 2.02 µM, which was aliquoted into 10 × 297 µL. Compound (5) stock solutions (3.0 µL each) at 0, 0.2, 0.8, 2, 4, 10, 20 and 40 mM in DMSO were added to give final compound concentrations at 0, 2, 8, 20, 40, 100, 200 and 400 µM respectively. Immediately after addition the samples were vortexed briefly and the time zero aliquots (25 µL) withdrawn, flash frozen in liquid nitrogen and stored at -80 °C. The protein solutions were incubated at 800 rpm (Eppendorf Thermomixer), 23 °C. Additional aliquots (all 25 µL) were similarly withdrawn after […]
as §4, with “(v.7). The observed rate constants (kobs) relate to Kd and kinact as depicted in equation 2 (Supplementary Figure S2C), although for compounds with weak affinities (such as fragments) the Kd is typically larger than the highest tested compound concentration (limited by aqueous solubility), and the kobs display a linear relationship to compound concentration, and a slope that equals to kinact/Kd (Figure 3D, Supplementary Figure” for “(v.7).”
Protein labelling: The HOIP RBR domain (16 µM) in buffer (50 mM HEPES, 150 mM NaCl, pH 7.5) was incubated with compound (5) (267 µM; 16-fold excess) at ambient temperature at 600 rpm (Heidolph Instruments) for 21 h. The protein was purified on a buffer exchanged spin chromatography column (Micro Bio-spin 6, Bio-Rad Laboratories) according to the vendor’s instructions to afford a stock solution of the HOIP RBR-(5) complex at a concentration of 7.6 µM (0.33 mg/mL) as determined by Nanodrop UV spectrophotometer. […]

Molecules are shown by their SMILES. Entries after “also recorded” stand apart in the source; their conditions may differ.

T1 sequence (Q96EP0 697-1072 C885S): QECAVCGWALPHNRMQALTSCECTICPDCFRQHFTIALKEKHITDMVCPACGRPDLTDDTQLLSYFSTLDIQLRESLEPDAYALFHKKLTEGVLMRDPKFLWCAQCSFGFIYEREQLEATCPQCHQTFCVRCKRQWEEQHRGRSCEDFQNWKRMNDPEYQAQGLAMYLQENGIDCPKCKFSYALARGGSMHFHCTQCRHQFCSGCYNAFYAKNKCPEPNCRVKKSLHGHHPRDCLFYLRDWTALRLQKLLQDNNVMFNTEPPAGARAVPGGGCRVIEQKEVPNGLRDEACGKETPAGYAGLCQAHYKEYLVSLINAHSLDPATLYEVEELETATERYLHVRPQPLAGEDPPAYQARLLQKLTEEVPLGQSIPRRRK

For orientation: kinact means the rate constant of inactivation at saturating inhibitor. What is called Kd is the concentration at which binding is half-saturated. For `COC(=O)/C=C/CNC(=O)c1cc2c([nH]c1=O)CCC2` [Compound 5], in assay [1], the “labeling of HOIP RBR C885S” value was “did not result in protein labeling; also recorded: not labeled”. Besides, in assay [2] (gradient of kobs vs concentration, 0-400 μM, 2 μM protein), the kinact/Kd is given as 0.97 ± 0.01 M^–1 s^–1. Besides, the “ligand efficiency, LE” value in assay [2] (inferred from lower limit of Kd) was less than 0.24. The kinact in assay [2] (lower limit, following from Kd limit) is more than 0.0004 s⁻¹. In addition, the Kd in assay [2] (lower limit, kobs linear across range tested) is more than 400 µM.

Source of the values: publication PMC6383986, “Fragment-Based Covalent Ligand Screening Enables Rapid Discovery of Inhibitors for the RBR E3 Ubiquitin Ligase HOIP” (Journal of the American Chemical Society, 2019).
